Tested on: 994946-033-R-J1-PDC complex spheroid viability
Assay: Anticancer human tumor 994946-033-R-J1-PDC patient-derived melanoma cell line growth inhibition [POLQ]
Details: for IC50: curve of first compound; for viability, T/C: stronger effect = lower value; active = viability on the fitted dose curve at most 10% of control; inactive = the rest
Method: Multicellular complex tumor spheroid response to Polymerase (POL) inhibitors (novobiocin, ART-558, RP6685) in combination with a variety of drugs and investigational agents in selected tumor cell lines
The POL inhibitors (novobiocin, ART-558, and RP6685) were evaluated both individually and in combination with standard of care and investigational anticancer small molecules within a complex spheroid model of solid tumors. . Complex spheroids include a stromal component modeled by human endothelial cells (HUVEC) and fibroblasts modeled by human mesenchymal stem cells (MSCs). The concentration ranges selected for each drug and investigational agent were based upon clinically achievable concentrations if the clinical Cmax of the agent was known.
Compounds. The drugs and investigational agents: novobiocin (NSC847541), ART-558 (NSC835418), RP-6685 (NSC848927), peposertib (NSC802822), ceralasertib (NSC780249), elimusertib (NSC800525), camonsertib (NSC841442), AZD-1390 (NSC803789), olaparib (NSC753686), talazoparib (NSC767125), rucaparib (NSC756644), sotorasib (NSC818433), MRTX-1133 (NSC836407), SN-38 (NSC673596), topotecan (NSC609699), epotoside (NSC141540), doxorubicin (NSC123127), gemcitabine (NSC613327), 5-fluorouracil (NSC19893), paclitaxel (NSC125973), vemurafenib (NSC761431), MSA-2 (NSC828583), SN-011 (NSC837082), adavosertib (NSC754352), prexasertib (NSC758257), carboplatin (NSC241240) and oxaliplatin (NSC266046), were obtained from the National Cancer Institute (NCI) Developmental Therapeutics Program Chemical Repository (21). The FDA-approved anticancer drug set is available from the Developmental Therapeutics Program at https://dtp.cancer.gov/organization/dscb/obtaining/. […] The stock solutions were prepared in dimethyl sulfoxide (DMSO, Sigma-Aldrich, St. Louis, MO, cat. D2650), except for the platinum compounds which were prepared in saline (Quality Biological, Gaithersburg, MD, cat. 114-055-101), at 800-fold the tested concentration and stored at -70 degrees C prior to their use. All drugs and investigational agents were tested over a range starting from a high concentration at or near the clinical Cmax and decreasing in half-log increments. If the clinical Cmax for an agent had not been determined, the highest concentration tested was 10 microM, except for SN-38, which was tested at a high concentration of 1 microM.
Cell Culture. All cells were maintained in an incubator at 37 degrees C and 5% CO2 with 95% humidity. The PDC lines were cultured according to standard operating procedures established by the NCI PDMR (https://pdmr.cancer.gov). Table 3 of the manuscript, lists the cell lines along with the number of the three cell types plated to form the mct-spheroids and media for tumor cell growth. After thawing, all PDC lines, except 997537-175-T-J1-PDC and 415267-285-R-J2-PDC, were cultured in Matrigel-coated flasks prepared with a working solution of 1X Ham's F-12 nutrient mix, without supplementation (Thermo Fisher Scientific, cat. 11765054), 100 U/mL penicillin-streptomycin (Thermo Fisher Scientific, cat. 15140122), and 2.5% Matrigel (Corning Inc., Corning, NY, cat. 354248) for the first three passages. The two PDC lines 997537-175-T-J1-PDC and 415267-285-R-J2-PDC were cultured on uncoated flasks. The 857933-349-R-J2-PDC line was cultured in 6C/Colon 1B media containing advanced DMEM/F-12 (Thermo Fisher Scientific, cat. 12634028), 10 mM HEPES (Thermo Fisher Scientific, cat. 15630080), 1X GlutaMAX supplement (Thermo Fisher Scientific, cat. 35050061), 0.1 mg/mL primocin (InvivoGen, San Diego, CA, cat. ant-pm-2), 10% defined fetal bovine serum, heat inactivated (HyClone Laboratories Inc., Logan, UT, cat. SH30070.03HI), 50% L-WRN conditioned media (ATCC, cat. CRL-3276), 1.25 mM N-Acetyl-L-cysteine (Sigma-Aldrich, cat. A9165), 10 mM nicotinamide (Sigma-Aldrich, cat. N0636), 1X B-27 supplement (Thermo Fisher Scientific, cat. 17504044), 1X N-2 supplement (Thermo Fisher Scientific, cat. […]
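Note: spheroids exposed to drugs for 7 days.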
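Throughout, for viability, T/C: 100% = DMSO vehicle treated spheroids.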

C=CCn1c(=O)c2cnc(Nc3ccc(N4CCN(C)CC4)cc3)nc2n1-c1cccc(C(C)(C)O)n1 + COC1C(OC(N)=O)C(O)C(Oc2ccc3c(O)c(NC(=O)c4ccc(O)c(CC=C(C)C)c4)c(=O)oc3c2C)OC1(C)C
0.966 µM: IC50 (second compound 10 µM)
0.675 µM: IC50 (second compound 0.316 µM)
0.863 µM: IC50 (second compound 0.1 µM)
> 1 µM: IC50 (second compound 1 µM) | IC50 (second compound 3.16 µM)
0.855 µM: IC50 (second compound 0.0316 µM)
inactive: viability, T/C (second compound 0.0316 µM, first compound 0.00316 µM) 89.1% | viability, T/C (second compound 0.0316 µM, first compound 0.01 µM) 115% | viability, T/C (second compound 0.0316 µM, first compound 0.0316 µM) 126% | viability, T/C (second compound 0.0316 µM, first compound 0.1 µM) 117% | viability, T/C (second compound 0.0316 µM, first compound 0.316 µM) 92.8% | viability, T/C (second compound 0.0316 µM, first compound 1 µM) 43.2% | viability, T/C (second compound 0.1 µM, first compound 0.00316 µM) 93.1% | viability, T/C (second compound 0.1 µM, first compound 0.01 µM) 101% | viability, T/C (second compound 0.1 µM, first compound 0.0316 µM) 117% | viability, T/C (second compound 0.1 µM, first compound 0.1 µM) 96% | viability, T/C (second compound 0.1 µM, first compound 0.316 µM) 89.2% | viability, T/C (second compound 0.1 µM, first compound 1 µM) 44.3% | viability, T/C (second compound 0.316 µM, first compound 0.00316 µM) 98.5% | viability, T/C (second compound 0.316 µM, first compound 0.01 µM) 109% | viability, T/C (second compound 0.316 µM, first compound 0.0316 µM) 134% | viability, T/C (second compound 0.316 µM, first compound 0.1 µM) 102% | viability, T/C (second compound 0.316 µM, first compound 0.316 µM) 83.9% | viability, T/C (second compound 0.316 µM, first compound 1 µM) 32.8% | viability, T/C (second compound 1 µM, first compound 0.00316 µM) 110% | viability, T/C (second compound 1 µM, first compound 0.01 µM) 118% | viability, T/C (second compound 1 µM, first compound 0.0316 µM) 94.9% | viability, T/C (second compound 1 µM, first compound 0.1 µM) 102% | viability, T/C (second compound 1 µM, first compound 0.316 µM) 104% | viability, T/C (second compound 1 µM, first compound 1 µM) 60.8% | viability, T/C (second compound 3.16 µM, first compound 0.00316 µM) 91.9% | viability, T/C (second compound 3.16 µM, first compound 0.01 µM) 127% | viability, T/C (second compound 3.16 µM, first compound 0.0316 µM) 106% | viability, T/C (second compound 3.16 µM, first compound 0.1 µM) 83.2% | viability, T/C (second compound 3.16 µM, first compound 0.316 µM) 56.5% | viability, T/C (second compound 3.16 µM, first compound 1 µM) 53.9% | viability, T/C (second compound 10 µM, first compound 0.00316 µM) 101% | viability, T/C (second compound 10 µM, first compound 0.01 µM) 104% | viability, T/C (second compound 10 µM, first compound 0.0316 µM) 120% | viability, T/C (second compound 10 µM, first compound 0.1 µM) 114% | viability, T/C (second compound 10 µM, first compound 0.316 µM) 93.8% | viability, T/C (second compound 10 µM, first compound 1 µM) 48.6%

CC(=O)O[C@H]1C(=O)[C@@]2(C)[C@H]([C@H](OC(=O)c3ccccc3)[C@]3(O)C[C@H](OC(=O)[C@H](O)[C@@H](NC(=O)c4ccccc4)c4ccccc4)C(C)=C1C3(C)C)[C@]1(OC(C)=O)CO[C@@H]1C[C@@H]2O + Cc1cccc(N(C)C(=O)C2C(O)CCN2c2nc(C)cc(C(F)(F)F)c2C#N)c1
< 0.00949 µM: IC50 (second compound 0.0316 µM) | IC50 (second compound 0.1 µM) | IC50 (second compound 0.316 µM) | IC50 (second compound 1 µM) | IC50 (second compound 3.16 µM) | IC50 (second compound 10 µM)
inactive: viability, T/C (second compound 0.0316 µM, first compound 0.00949 µM) 19.5% | viability, T/C (second compound 0.0316 µM, first compound 0.03 µM) 19.7% | viability, T/C (second compound 0.0316 µM, first compound 0.0949 µM) 20.6% | viability, T/C (second compound 0.0316 µM, first compound 0.3 µM) 13.5% | viability, T/C (second compound 0.0316 µM, first compound 0.949 µM) 9.96% | viability, T/C (second compound 0.1 µM, first compound 0.00949 µM) 22.4% | viability, T/C (second compound 0.1 µM, first compound 0.03 µM) 20.6% | viability, T/C (second compound 0.1 µM, first compound 0.0949 µM) 16.8% | viability, T/C (second compound 0.1 µM, first compound 0.3 µM) 16.8% | viability, T/C (second compound 0.1 µM, first compound 0.949 µM) 10.6% | viability, T/C (second compound 0.1 µM, first compound 3 µM) 12.3% | viability, T/C (second compound 0.316 µM, first compound 0.00949 µM) 16.1% | viability, T/C (second compound 0.316 µM, first compound 0.03 µM) 31.9% | viability, T/C (second compound 0.316 µM, first compound 0.0949 µM) 16.3% | viability, T/C (second compound 0.316 µM, first compound 0.3 µM) 15.3% | viability, T/C (second compound 0.316 µM, first compound 0.949 µM) 14.7% | viability, T/C (second compound 0.316 µM, first compound 3 µM) 14.6% | viability, T/C (second compound 1 µM, first compound 0.00949 µM) 23.4% | viability, T/C (second compound 1 µM, first compound 0.03 µM) 21.8% | viability, T/C (second compound 1 µM, first compound 0.0949 µM) 18.9% | viability, T/C (second compound 1 µM, first compound 0.3 µM) 19.6% | viability, T/C (second compound 1 µM, first compound 0.949 µM) 12.4% | viability, T/C (second compound 1 µM, first compound 3 µM) 12.7% | viability, T/C (second compound 3.16 µM, first compound 0.00949 µM) 23% | viability, T/C (second compound 3.16 µM, first compound 0.03 µM) 24.2% | viability, T/C (second compound 3.16 µM, first compound 0.0949 µM) 20.3% | viability, T/C (second compound 3.16 µM, first compound 0.3 µM) 17.3% | viability, T/C (second compound 3.16 µM, first compound 0.949 µM) 14.5% | viability, T/C (second compound 3.16 µM, first compound 3 µM) 12.9% | viability, T/C (second compound 10 µM, first compound 0.00949 µM) 21.6% | viability, T/C (second compound 10 µM, first compound 0.03 µM) 26.2% | viability, T/C (second compound 10 µM, first compound 0.0949 µM) 23.9% | viability, T/C (second compound 10 µM, first compound 0.3 µM) 18.5% | viability, T/C (second compound 10 µM, first compound 0.949 µM) 15% | viability, T/C (second compound 10 µM, first compound 3 µM) 15.7%
active: viability, T/C (second compound 0.0316 µM, first compound 3 µM) 8.94%

— PubChem BioAssay AID1963827 (Molecular Pharmacology Branch, DTP, NCI, 2024)
